The text below walks through data of ChEMBL document CHEMBL5236643, “Discovery and characterization of orally bioavailable 4-chloro-6-fluoroisophthalamides as covalent PPARG inverse-agonists” (Bioorg Med Chem, 2023).

pEC50, pIC50: −log10 of the molar value. The source made the active and inactive calls. No cut-off for these calls is given here.

For experiment [1], the target named is T1, Peroxisome proliferator-activated receptor gamma (Mus musculus) (UniProt P37238).
T1 sequence (whole entry): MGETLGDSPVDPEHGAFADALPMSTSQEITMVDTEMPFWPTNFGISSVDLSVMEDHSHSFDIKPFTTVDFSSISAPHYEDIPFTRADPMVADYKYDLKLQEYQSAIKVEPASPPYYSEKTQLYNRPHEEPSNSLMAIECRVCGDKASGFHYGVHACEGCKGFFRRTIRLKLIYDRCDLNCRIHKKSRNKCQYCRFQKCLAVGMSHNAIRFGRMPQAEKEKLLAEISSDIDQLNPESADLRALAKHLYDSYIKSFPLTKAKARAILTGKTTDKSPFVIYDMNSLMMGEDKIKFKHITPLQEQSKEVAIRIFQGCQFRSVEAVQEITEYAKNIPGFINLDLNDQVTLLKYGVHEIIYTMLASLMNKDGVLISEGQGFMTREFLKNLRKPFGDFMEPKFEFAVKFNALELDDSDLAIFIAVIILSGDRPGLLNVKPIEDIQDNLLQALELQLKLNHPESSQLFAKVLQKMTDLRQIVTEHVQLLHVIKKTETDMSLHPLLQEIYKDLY
Briefly: Inverse agonist activity at PPARgamma in NMRI-nu/nu mouse assessed as reduction in Fabp4 mRNA expression in adipose tissue at 100 mg/kg for 3 days and measured 6 hrs last dose by qPCR analysis. The class given is organism-based. Particulars: time 3.0 day. (Quantitative PCR measures a nucleic acid by following its amplification.)

Experiment [2] has as its target T2, Peroxisome proliferator-activated receptor delta (Homo sapiens, UniProt Q03181).
T2 sequence (Q03181 whole entry): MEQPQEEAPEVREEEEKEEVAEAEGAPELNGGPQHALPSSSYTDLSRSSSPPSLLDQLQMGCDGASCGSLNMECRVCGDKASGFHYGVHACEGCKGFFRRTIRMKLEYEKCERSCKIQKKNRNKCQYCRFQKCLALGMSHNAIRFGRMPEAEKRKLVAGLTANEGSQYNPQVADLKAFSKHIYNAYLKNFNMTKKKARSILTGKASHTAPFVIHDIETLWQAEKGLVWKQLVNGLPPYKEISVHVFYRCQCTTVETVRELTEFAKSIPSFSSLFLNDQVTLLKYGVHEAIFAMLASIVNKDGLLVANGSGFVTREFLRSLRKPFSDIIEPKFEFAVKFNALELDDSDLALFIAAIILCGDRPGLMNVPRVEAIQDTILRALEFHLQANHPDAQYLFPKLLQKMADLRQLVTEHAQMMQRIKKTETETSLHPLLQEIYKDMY
Briefly: Inverse agonist activity at human PPARdelta expressed in CHO cells co-expressing GAL4-NHR-LBD assessed as transcriptional repression preincubated for 6 hrs followed by luciferin addition by luminescence method. Type of experiment: cell-based.

Experiment [3] concerns the target T3, Peroxisome proliferator-activated receptor alpha (Homo sapiens, UniProt Q07869).
T3 sequence (Q07869 whole entry): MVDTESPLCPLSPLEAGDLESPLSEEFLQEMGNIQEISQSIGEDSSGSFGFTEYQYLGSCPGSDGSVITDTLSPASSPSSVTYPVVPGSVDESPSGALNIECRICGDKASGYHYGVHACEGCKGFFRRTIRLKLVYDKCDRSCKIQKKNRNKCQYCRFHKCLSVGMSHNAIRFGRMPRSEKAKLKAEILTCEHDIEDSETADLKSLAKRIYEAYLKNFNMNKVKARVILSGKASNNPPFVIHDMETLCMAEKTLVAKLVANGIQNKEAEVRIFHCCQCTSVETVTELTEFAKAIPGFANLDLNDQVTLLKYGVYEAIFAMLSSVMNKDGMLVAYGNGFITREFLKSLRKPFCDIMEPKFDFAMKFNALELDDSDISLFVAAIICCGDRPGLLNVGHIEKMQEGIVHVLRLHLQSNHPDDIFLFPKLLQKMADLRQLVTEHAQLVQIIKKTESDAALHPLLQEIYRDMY
Briefly: Agonist activity at human PPARalpha expressed in CHO cells co-expressing GAL4-NHR-LBD assessed as transcriptional activation preincubated for 6 hrs followed by luciferin addition by luminescence method. The class given is cell-based.

Experiment [4] is described as follows: Antiproliferative activity against human UM-UC-9 assessed as inhibition of cell proliferation by measuring maximum efficacy after 7 days by IncuCyte live-cell imaging assay. Type of experiment: functional. The note with it: UM-UC-9, 168 h, time 7 day.
Experiment [5] addresses T4, Peroxisome proliferator-activated receptor gamma (Homo sapiens, UniProt P37231).
T4 sequence (P37231 whole entry): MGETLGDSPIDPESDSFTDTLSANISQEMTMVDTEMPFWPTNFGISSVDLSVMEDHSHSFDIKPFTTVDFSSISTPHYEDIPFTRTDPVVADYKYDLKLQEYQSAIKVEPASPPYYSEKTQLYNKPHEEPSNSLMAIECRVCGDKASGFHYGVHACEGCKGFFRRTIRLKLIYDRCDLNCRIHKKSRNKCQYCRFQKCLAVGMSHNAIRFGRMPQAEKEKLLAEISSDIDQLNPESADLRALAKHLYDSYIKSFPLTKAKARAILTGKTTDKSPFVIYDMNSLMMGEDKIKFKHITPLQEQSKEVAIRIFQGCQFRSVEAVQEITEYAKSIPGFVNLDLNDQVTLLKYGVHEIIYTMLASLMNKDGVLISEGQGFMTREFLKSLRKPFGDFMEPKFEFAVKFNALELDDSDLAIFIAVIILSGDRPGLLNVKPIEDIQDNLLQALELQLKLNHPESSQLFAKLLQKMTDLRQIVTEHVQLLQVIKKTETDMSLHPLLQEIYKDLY
In words: Inverse agonist activity at GST tagged human PPARgamma LBD (231 to 505 residues) expressed in Escherichia coli BL21(DE3) assessed as recruitment of fluorescein labeled corepressor NCOR2 Smrt-ID2 peptide to PPARgamma LBD incubated for 24 hrs by LanthaScreen TR-FRET assay. A general note: TR-FRET usually uses a lanthanide donor and a delayed reading to cut background.

The target of experiment [6] is T4, Peroxisome proliferator-activated receptor gamma. In words: Inverse agonist activity at human PPARgamma in human RT112/84 transfected with NLuc-fused FABP4 assessed as reduction in PPARgamma transactivation incubated for 6 to 18 hrs by Nano-Glo luciferase assay. Type of experiment: cell-based.
Experiment [7] can be described thus: Antiproliferative activity against human UM-UC-9 assessed as inhibition of cell proliferation measured after 7 days by IncuCyte live-cell imaging assay. The note with it: UM-UC-9, 168 h.

The pIC50 is the negative decadic logarithm of the IC50, by convention in mol/L. As to `Cc1c(C)n(Cc2ccc(Cl)c(O[C@@H](C)C(=O)O)c2)c2ccc(C(=O)N[C@@H](C)c3ccc(C(C)(C)C)cc3)cc12`, the outcome in experiment [1] was inactive. For the same molecule, the negative-log IC50 (pIC50) was 5.05 in experiment [2] and 6.03 in experiment [3].

The term pEC50 denotes −log10 of the EC50, conventionally taken in molar units. Regarding `Cc1cc(-c2nnco2)ccc1NC(=O)c1cc(C(=O)NCc2ccc(F)c(F)c2)c(F)cc1Cl`, the Emax in experiment [4] was 87%. Moreover, the pEC50 in experiment [5] was 7.31.

Consider `O=C(NCc1ccc(Cl)cc1)c1ccc(Cl)c(C(=O)Nc2ccccc2)c1`, for which, in experiment [5], the negative logarithm of the EC50 (pEC50) was 5.14. Also, in experiment [6], the pIC50 was less than 5.30.

Consider `Cc1ccccc1NC(=O)c1cc(C(=O)NCc2ccccc2)c(F)cc1Cl`, for which the Emax in experiment [4] turned out to be 26%. Besides, in experiment [5], the pEC50 was 7.16. Besides, the figures for the negative-log IC50 (pIC50) in experiment [7] and in experiment [6] were 6.78 and 7.42, respectively.

Regarding `O=C(NCc1ccc(F)c(F)c1)c1cc(C(=O)Nc2ccccn2)c(Cl)cc1F`, the Emax in experiment [4] amounted to 100%. Moreover, the pEC50 in experiment [5] is 6.96.

In the case of `Cc1cccc(-c2nc3cc(NC(=O)c4cc(C(=O)NCc5ccc(F)c(F)c5)c(F)cc4Cl)ccc3o2)c1`, the Emax in experiment [4] stood at 93%. Further, in experiment [5], the negative-log EC50 (pEC50) is 6.64. The negative-log IC50 (pIC50) in experiment [7] is 7.73.

For `Cc1cccnc1NC(=O)c1cc(C(=O)NCc2ccc(F)c(F)c2)c(F)cc1Cl`, the Emax in experiment [4] was 108%. Moreover, in experiment [5], the pEC50 was 6.30. Moreover, the pIC50 in experiment [7] is 6.16; in experiment [6], 7.04.

Consider `O=C(NCc1ccccc1)c1cc(C(=O)Nc2ccccc2)c(Cl)c(C(F)(F)F)c1`, for which the negative-log EC50 (pEC50) in experiment [5] was 5.66. In experiment [6], the pIC50 is less than 5.30.
